# Assays:
# Assay type in all cases: cell-based
# [1] = molecular target: human TLR8 (Homo sapiens (Human), UniProt Q9NR97); test: TLR8 inhibition reporter assay (HEK-Blue, SEAP); details: HEK-Blue cells overexpressing human TLR8, R848 15.9 μM stimulation
# Procedure, shortened: (§1)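 HEK-Blue cells overexpressing the receptor carry a SEAP reporter under IFN-β minimal promoter with NF-κB/AP-1 sites. Compounds (0.05 nM–50 μM final) were preincubated 30 min at room temperature, then cells were stimulated with gardiquimod 7.5 μM (TLR7), R848 15.9 μM (TLR8) or ODN2006 5 nM (TLR9) for 22 h at 37 °C.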
# [2] = molecular target: human TLR7 (Homo sapiens (Human), UniProt Q9NYK1); test: TLR7 inhibition reporter assay (HEK-Blue, SEAP); details: HEK-Blue cells overexpressing human TLR7, gardiquimod 7.5 μM stimulation
# human TLR7, sequence (Q9NYK1 27-1049): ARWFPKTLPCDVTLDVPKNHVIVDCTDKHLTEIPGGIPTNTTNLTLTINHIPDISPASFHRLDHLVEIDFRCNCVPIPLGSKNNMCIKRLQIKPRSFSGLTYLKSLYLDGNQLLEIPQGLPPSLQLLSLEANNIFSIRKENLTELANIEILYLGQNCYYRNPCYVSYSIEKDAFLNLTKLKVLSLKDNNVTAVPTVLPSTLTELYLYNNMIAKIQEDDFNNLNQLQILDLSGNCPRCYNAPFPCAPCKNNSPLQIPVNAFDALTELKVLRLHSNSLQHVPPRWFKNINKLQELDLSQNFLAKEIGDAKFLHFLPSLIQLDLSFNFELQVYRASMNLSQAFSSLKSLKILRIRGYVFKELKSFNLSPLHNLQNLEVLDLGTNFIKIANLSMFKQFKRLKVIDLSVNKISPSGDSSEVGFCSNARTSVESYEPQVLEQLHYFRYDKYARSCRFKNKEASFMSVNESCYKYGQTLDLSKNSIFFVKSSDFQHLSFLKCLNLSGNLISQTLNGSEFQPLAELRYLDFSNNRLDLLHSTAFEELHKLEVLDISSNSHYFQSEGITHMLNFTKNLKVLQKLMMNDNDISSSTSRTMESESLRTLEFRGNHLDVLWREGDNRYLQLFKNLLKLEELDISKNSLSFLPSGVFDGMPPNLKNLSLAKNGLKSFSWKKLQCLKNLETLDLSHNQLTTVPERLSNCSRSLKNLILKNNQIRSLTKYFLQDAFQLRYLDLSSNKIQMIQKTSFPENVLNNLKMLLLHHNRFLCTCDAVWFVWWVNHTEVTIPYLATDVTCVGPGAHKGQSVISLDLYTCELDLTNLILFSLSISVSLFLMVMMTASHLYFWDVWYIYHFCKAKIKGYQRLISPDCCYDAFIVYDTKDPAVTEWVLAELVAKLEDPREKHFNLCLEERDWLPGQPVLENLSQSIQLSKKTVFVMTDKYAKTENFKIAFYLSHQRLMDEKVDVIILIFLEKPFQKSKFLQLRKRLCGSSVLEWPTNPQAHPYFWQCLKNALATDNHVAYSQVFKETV
# Procedure, shortened: as §1
# [3] = molecular target: human TLR9 (Homo sapiens (Human), UniProt Q9NR96); test: TLR9 inhibition reporter assay (HEK-Blue, SEAP); details: HEK-Blue cells overexpressing human TLR9, ODN2006 5 nM stimulation
# human TLR9, sequence (Q9NR96 26-1032): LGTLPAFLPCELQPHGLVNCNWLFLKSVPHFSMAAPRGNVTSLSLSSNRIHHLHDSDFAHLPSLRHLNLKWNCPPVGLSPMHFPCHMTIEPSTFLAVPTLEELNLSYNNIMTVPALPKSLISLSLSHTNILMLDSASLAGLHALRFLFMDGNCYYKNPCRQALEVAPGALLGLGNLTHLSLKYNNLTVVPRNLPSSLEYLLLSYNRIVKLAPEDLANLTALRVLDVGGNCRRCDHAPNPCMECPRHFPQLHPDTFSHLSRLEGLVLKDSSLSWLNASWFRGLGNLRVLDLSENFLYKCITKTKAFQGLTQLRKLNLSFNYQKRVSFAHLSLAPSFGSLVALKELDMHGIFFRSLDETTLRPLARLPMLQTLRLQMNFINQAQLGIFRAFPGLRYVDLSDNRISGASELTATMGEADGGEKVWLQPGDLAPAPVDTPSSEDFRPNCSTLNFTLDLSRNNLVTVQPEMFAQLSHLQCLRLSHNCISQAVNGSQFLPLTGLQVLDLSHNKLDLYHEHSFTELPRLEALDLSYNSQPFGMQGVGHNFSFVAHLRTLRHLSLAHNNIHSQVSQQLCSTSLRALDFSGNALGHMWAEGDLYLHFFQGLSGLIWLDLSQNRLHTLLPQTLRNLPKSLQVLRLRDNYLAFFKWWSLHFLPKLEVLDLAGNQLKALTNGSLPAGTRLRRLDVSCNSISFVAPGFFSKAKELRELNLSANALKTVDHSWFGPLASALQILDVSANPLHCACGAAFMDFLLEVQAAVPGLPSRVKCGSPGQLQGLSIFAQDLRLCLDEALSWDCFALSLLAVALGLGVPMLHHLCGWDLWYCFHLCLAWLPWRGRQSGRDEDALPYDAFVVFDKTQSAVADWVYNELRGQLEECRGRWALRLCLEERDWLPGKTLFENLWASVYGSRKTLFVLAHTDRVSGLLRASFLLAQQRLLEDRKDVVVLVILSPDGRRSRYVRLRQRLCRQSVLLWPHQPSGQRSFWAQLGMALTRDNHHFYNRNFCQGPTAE
# Procedure, shortened: as §1
# human TLR8, sequence (Q9NR97 27-1041): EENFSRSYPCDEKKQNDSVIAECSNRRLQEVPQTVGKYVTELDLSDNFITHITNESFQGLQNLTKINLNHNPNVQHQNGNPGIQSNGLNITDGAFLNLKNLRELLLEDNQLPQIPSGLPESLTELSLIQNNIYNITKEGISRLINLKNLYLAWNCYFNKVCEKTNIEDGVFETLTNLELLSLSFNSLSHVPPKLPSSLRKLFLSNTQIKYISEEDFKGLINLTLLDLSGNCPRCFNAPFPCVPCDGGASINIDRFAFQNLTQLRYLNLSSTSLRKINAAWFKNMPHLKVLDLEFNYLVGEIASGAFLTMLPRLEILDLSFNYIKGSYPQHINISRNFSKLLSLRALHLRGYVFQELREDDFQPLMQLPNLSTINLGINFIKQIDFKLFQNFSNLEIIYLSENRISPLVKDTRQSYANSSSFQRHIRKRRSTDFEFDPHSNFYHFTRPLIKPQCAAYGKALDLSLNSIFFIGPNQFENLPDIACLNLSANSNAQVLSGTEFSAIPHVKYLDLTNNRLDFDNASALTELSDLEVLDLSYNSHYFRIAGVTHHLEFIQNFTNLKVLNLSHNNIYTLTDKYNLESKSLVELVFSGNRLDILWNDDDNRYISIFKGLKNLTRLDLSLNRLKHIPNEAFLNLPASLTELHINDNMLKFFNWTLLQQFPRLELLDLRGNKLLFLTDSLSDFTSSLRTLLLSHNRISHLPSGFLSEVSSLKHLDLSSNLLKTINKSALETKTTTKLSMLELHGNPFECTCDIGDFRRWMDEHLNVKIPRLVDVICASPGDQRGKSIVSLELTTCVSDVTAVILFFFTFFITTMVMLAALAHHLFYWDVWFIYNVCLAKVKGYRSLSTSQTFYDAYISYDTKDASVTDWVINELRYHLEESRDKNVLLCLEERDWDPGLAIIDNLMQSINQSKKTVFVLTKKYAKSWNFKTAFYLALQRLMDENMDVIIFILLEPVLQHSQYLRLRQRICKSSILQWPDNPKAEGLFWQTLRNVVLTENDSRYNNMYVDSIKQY
SMILES,IC50 [1] [µM],IC50 [2] [µM],IC50 [3] [µM]
"Cc1cc(-c2[nH]c3ccc(-c4nnc(CCCN(C)C)o4)cc3c2C(C)C)cc(C)n1 [Example 271, 3-(5-(2-(2,6-dimethylpyridin-4-yl)-3-isopropyl-1H-indol-5-yl)-1,3,4-oxadiazol-2-yl)-N,N-dimethylpropan-1-amine]",0.0019,0.0063,0.281
"Cc1cc(-c2[nH]c3ccc(-c4cc5c(s4)CN(CC(=O)N(C)C)CC5)cc3c2C(C)C)cc(C)n1 [Example 342, 2-(2-(2-(2,6-dimethylpyridin-4-yl)-3-isopropyl-1H-indol-5-yl)-4,7-dihydrothieno[2,3-c]pyridin-6(5H)-yl)-N,N-dimethylacetamide]",0.0089,0.019,1.33
"Cc1cc(-c2[nH]c3ccc(-c4ccc(N5CC(C)OC(C)C5)nc4)cc3c2C(C)C)cc(C)n1 (stereo not drawn) [Example 335, 4-(5-(2-(2,6-dimethylpyridin-4-yl)-3-isopropyl-1H-indol-5-yl)pyridin-2-yl)-2,6-dimethylmorpholine]",0.106,0.166,38.1
"COc1ccc(-c2[nH]c3ccc(-c4nnc(N5CCNCC5)o4)cc3c2C(C)C)cc1OC [Example 105, 2-(2-(3,4-dimethoxyphenyl)-3-isopropyl-1H-indol-5-yl)-5-(piperazin-1-yl)-1,3,4-oxadiazole]",0.0088,0.019,1.07
"CC(C)c1c(-c2ccnc3[nH]ncc23)[nH]c2ccc(-c3nnc(C(=O)N4CCCN(C)CC4)o3)cc12 [Example 125, (5-(3-isopropyl-2-(1H-pyrazolo[3,4-b]pyridin-4-yl)-1H-indol-5-yl)-1,3,4-oxadiazol-2-yl)(4-methyl-1,4-diazepan-1-yl)methanone]",0.04,0.183,0.776
"CC(=O)N1CCc2nc(-c3ccc4[nH]c(-c5cc(C)nc(C)c5)c(C(C)C)c4c3)sc2C1 [Example 362, 1-(2-(2-(2,6-dimethylpyridin-4-yl)-3-isopropyl-1H-indol-5-yl)-6,7-dihydrothiazolo[5,4-c]pyridin-5(4H)-yl)ethan-1-one]",0.009,0.0064,> 50
"Cc1cc(-c2[nH]c3ccc(-c4ccc(NC(C)C)nc4)cc3c2C(C)C)cc(C)n1 [Example 248, 5-(2-(2,6-dimethylpyridin-4-yl)-3-isopropyl-1H-indol-5-yl)-N-isopropylpyridin-2-amine]",0.0026,0.02,4.07
"COc1ccc(-c2[nH]c3ccc(-c4cccc(-c5cccc(CN(C)C)c5)c4)cc3c2C(C)C)cc1OC [Example 397, 1-(3′-(2-(3,4-dimethoxyphenyl)-3-isopropyl-1H-indol-5-yl)-[1,1′-biphenyl]-3-yl)-N,N-dimethylmethanamine]",0.101,3.3,4.12
"Cc1cc(-c2[nH]c3ccc(-c4cc5c(s4)CN(C(C)C)CC5)cc3c2C(C)C)cc(C)n1 [Example 325, 2-(2-(2,6-dimethylpyridin-4-yl)-3-isopropyl-1H-indol-5-yl)-6-isopropyl-4,5,6,7-tetrahydrothieno[2,3-c]pyridine]",0.0005,0.011,0.282
"COc1ccc(-c2[nH]c3ccc(-c4ccc(NCCN5CCOCC5)cc4)cc3c2C(C)C)cc1OC [Example 401, 4-(2-(3,4-dimethoxyphenyl)-3-isopropyl-1H-indol-5-yl)-N-(2-morpholinoethyl)aniline]",0.077,0.541,43.3
"CC(C)c1c(-c2ccnc3[nH]ncc23)[nH]c2ccc(-c3nc4n(n3)CCNC4)cc12 [Example 206, 2-(3-isopropyl-2-(1H-pyrazolo[3,4-b]pyridin-4-yl)-1H-indol-5-yl)-5,6,7,8-tetrahydro-[1,2,4]triazolo[1,5-a]pyrazine]",0.011,4.45,> 50
"Cc1oc(-c2ccc3[nH]c(-c4ccnc5[nH]ncc45)c(C(C)C)c3c2)nc1C(=O)NCC1CCNC1 (stereo not drawn) [Example 212, 2-(3-isopropyl-2-(1H-pyrazolo[3,4-b]pyridin-4-yl)-1H-indol-5-yl)-5-methyl-N-(pyrrolidin-3-ylmethyl)oxazole-4-carboxamide]",0.109,1.06,12.1
"Cc1cc(-c2[nH]c3ccc(-c4nnc([C@@H]5CCCNC5)o4)cc3c2C(C)C)cc(C)n1 [Example 232, (R)-2-(2-(2,6-dimethylpyridin-4-yl)-3-isopropyl-1H-indol-5-yl)-5-(piperidin-3-yl)-1,3,4-oxadiazole]",0.0032,0.011,0.95
"COc1ccc(-c2[nH]c3ccc(-c4ccc(C5=CC(C)(C)NC(C)(C)C5)cc4)cc3c2C(C)C)cc1OC [Example 377, 2-(3,4-dimethoxyphenyl)-3-isopropyl-5-(4-(2,2,6,6-tetramethyl-1,2,3,6-tetrahydropyridin-4-yl)phenyl)-1H-indole]",0.34,0.9,4.77
"COc1ccc(-c2[nH]c3ccc(-c4nnc(C5CCNCC5)[nH]4)cc3c2C(C)C)cc1OC [Example 124, 2-(3,4-dimethoxyphenyl)-3-isopropyl-5-(5-(piperidin-4-yl)-4H-1,2,4-triazol-3-yl)-1H-indole]",0.108,0.182,9.2

# The next lines start with the values.
IC50 [1] [µM],IC50 [2] [µM],IC50 [3] [µM],SMILES
1.04,1.07,> 50,"COc1ccc(-c2[nH]c3ccc(-c4ccnc(C(=O)N5CCNCC5)c4)cc3c2C(C)C)cc1OC [Example 14, (4-(2-(3,4-dimethoxyphenyl)-3-isopropyl-1H-indol-5-yl)pyridin-2-yl)(piperazin-1-yl)methanone]"
0.039,0.053,> 50,"Cc1cc(-c2[nH]c3ccc(-c4cc5c(s4)CN(C(=O)CS(C)(=O)=O)CC5)cc3c2C(C)C)cc(C)n1 [Example 353, 1-(2-(2-(2,6-dimethylpyridin-4-yl)-3-isopropyl-1H-indol-5-yl)-4,7-dihydrothieno[2,3-c]pyridin-6(5H)-yl)-2-(methylsulfonyl)ethan-1-one]"
0.0086,0.033,0.69,"Cc1cc(-c2[nH]c3ccc(-c4nnc(C5CCN(Cc6ccccc6)CC5)[nH]4)cc3c2C(C)C)ccn1 [Example 163, 5-(5-(1-benzylpiperidin-4-yl)-4H-1,2,4-triazol-3-yl)-3-isopropyl-2-(2-methylpyridin-4-yl)-1H-indole]"
0.019,0.121,1.69,"CCc1c(-c2ccc(OC)c(OC)c2)[nH]c2ccc(-c3noc(C4CCNC4)n3)cc12 (stereo not drawn) [Example 450, 3-(2-(3,4-dimethoxyphenyl)-3-ethyl-1H-indol-5-yl)-5-(pyrrolidin-3-yl)-1,2,4-oxadiazole]"
0.037,0.945,> 50,"CC(C)c1c(-c2ccnc3[nH]ncc23)[nH]c2ccc(-c3nnc(CNC4CC4)o3)cc12 [Example 148, N-((5-(3-isopropyl-2-(1H-pyrazolo[3,4-b]pyridin-4-yl)-1H-indol-5-yl)-1,3,4-oxadiazol-2-yl)methyl)cyclopropanamine]"
0.222,0.219,> 50,"COc1ccc(-c2[nH]c3ccc(-c4nnc(CNCCS(=O)(=O)O)o4)cc3c2C(C)C)cc1OC [Example 113, 2-(((5-(2-(3,4-dimethoxyphenyl)-3-isopropyl-1H-indol-5-yl)-1,3,4-oxadiazol-2-yl)methyl)amino)ethane-1-sulfonic acid]"
0.014,0.055,3.29,"COc1ccc(-c2[nH]c3ccc(-c4nnc(C(=O)NCCCn5ccnc5)o4)cc3c2C(C)C)cc1OC [Example 101, N-(3-(1H-imidazol-1-yl)propyl)-5-(2-(3,4-dimethoxyphenyl)-3-isopropyl-1H-indol-5-yl)-1,3,4-oxadiazole-2-carboxamide]"
0.0028,0.214,33.8,"Cc1cc(-c2[nH]c3ccc(-c4nnc([C@@H](N)C5CC5)o4)cc3c2C(C)C)ccn1 [Example 268, (S)-cyclopropyl(5-(3-isopropyl-2-(2-methylpyridin-4-yl)-1H-indol-5-yl)-1,3,4-oxadiazol-2-yl)methanamine]"
0.001,0.034,0.633,"Cc1cc(-c2[nH]c3ccc(-c4nnc(C[C@H]5CCCN5)o4)cc3c2C(C)C)ccn1 [Example 145, (R)-2-(3-isopropyl-2-(2-methylpyridin-4-yl)-1H-indol-5-yl)-5-(pyrrolidin-2-ylmethyl)-1,3,4-oxadiazole]"
0.03,0.048,0.206,"Cc1cc(-c2[nH]c3ccc(-c4nnc(C5CCCN(C(C)C)C5)o4)cc3c2CC(F)F)cc(C)n1 (stereo not drawn) [Example 328, 2-(3-(2,2-difluoroethyl)-2-(2,6-dimethylpyridin-4-yl)-1H-indol-5-yl)-5-(1-isopropylpiperidin-3-yl)-1,3,4-oxadiazole]"
0.0012,0.0026,0.438,"Cc1cc(-c2[nH]c3ccc(-c4cc5c(s4)CNCC5)cc3c2C(C)C)cc(C)n1 [Example 324, 2-(2-(2,6-dimethylpyridin-4-yl)-3-isopropyl-1H-indol-5-yl)-4,5,6,7-tetrahydrothieno[2,3-c]pyridine]"
0.0022,0.031,0.872,"Cc1cc(-c2[nH]c3ccc(-c4nnc(C5CCCN(CC(=O)N(C)C)C5)[nH]4)cc3c2C(C)C)ccn1 (stereo not drawn) [Example 180, 2-(3-(5-(3-isopropyl-2-(2-methylpyridin-4-yl)-1H-indol-5-yl)-4H-1,2,4-triazol-3-yl)piperidin-1-yl)-N,N-dimethylacetamide]"
